Literature values as cited in patent EP0268928A2, “Safened pesticidal dispersion resin compositions for controlling soil borne pests and process for the preparation thereof” (priority 1986, dated 1988).

Tested on: rats
Conditions: technical grade

## CCOP(=S)(OCC)SCSCC [phorate, 0,0-diethyl-S-(ethylthiomethyl)phosphorodithioate]
  acute oral LD50 value in rats: 1.6-3.7 mg technical/kg
